Data as given in ChEMBL document CHEMBL1201862, “PubChem BioAssay data set” (2004).
Several values for one entry are separate records, joined by “and”; a condition that tells them apart may be missing. Equal values may be shown once.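 How tested: cells in 96-well plates exposed to compound for 48 hours at five concentrations. GI50 = concentration required for 50% inhibition of growth.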 Activity calls are given as the source filed them. Rule as the data show it: active = GI50 up to about 1.1 µM and inactive = higher.

How the values were obtained:
Assay in all cases: inhibition of tumour cell growth, NCI panel, 48 h
CAKI-1 = tested on: CAKI-1
HCT-116 = tested on: HCT-116
HCT-15 = tested on: HCT-15
HOP-92 = tested on: HOP-92
K562 = tested on: K562
KM12 = tested on: KM12
M14 = tested on: M14
MDA-MB-231 = tested on: MDA-MB-231
MDA-MB-435 = tested on: MDA-MB-435
MDA-N = tested on: MDA-N
Malme-3M = tested on: Malme-3M
OVCAR-4 = tested on: OVCAR-4
SK-MEL-2 = tested on: SK-MEL-2
SK-MEL-5 = tested on: SK-MEL-5
SR = tested on: SR
TK-10 = tested on: TK-10
U-251 = tested on: U-251
HL-60 = tested on: HL-60

Measured: GI50

C[Si](C)(c1ccc(C(=O)O)cc1)c1ccc(C(=O)O)cc1
> 100 µM: HCT-15
inactive: CAKI-1 > 100 µM | HCT-116 > 100 µM | HOP-92 > 100 µM | K562 > 100 µM | KM12 > 100 µM | M14 > 100 µM | MDA-MB-231 > 100 µM | MDA-MB-435 > 100 µM | MDA-N > 100 µM | Malme-3M > 100 µM | OVCAR-4 > 100 µM | SK-MEL-2 > 100 µM | SK-MEL-5 > 100 µM | SR > 100 µM | TK-10 > 100 µM | U-251 > 100 µM

Clc1cccc(Cl)c1C(Nc1nncs1)Nc1nncs1
13 µM: HCT-15
inactive: CAKI-1 75.3 µM | HCT-116 28.6 µM | HL-60 17.3 µM | HOP-92 > 100 µM | K562 31.7 µM | KM12 27.7 µM | M14 36.2 µM | MDA-MB-231 > 100 µM | MDA-MB-435 11.1 µM | MDA-N 9.27 µM | Malme-3M 64.4 µM | OVCAR-4 59.4 µM | SK-MEL-2 38.6 µM | SK-MEL-5 32.5 µM | SR 4.84 µM | TK-10 23.9 µM | U-251 41.1 µM

O=C1N/C(=N/N=C\C(O)C(O)C(O)C(O)CO)N/C1=C/c1ccc(Cl)cc1 (stereo not given)
76 µM and 50.6 µM: HCT-15
inactive: CAKI-1 > 100 µM | HCT-116 > 100 µM | HL-60 14.4 µM and 23.8 µM | HOP-92 > 100 µM | K562 55.6 µM and 27.7 µM | KM12 > 100 µM | M14 > 100 µM | MDA-MB-231 > 100 µM | MDA-MB-435 > 100 µM | MDA-N > 100 µM | Malme-3M 97.3 µM | OVCAR-4 37.2 µM and 17.7 µM | SK-MEL-2 > 100 µM | SK-MEL-5 > 100 µM | SR 47.2 µM | TK-10 > 100 µM | U-251 > 100 µM

C=CC(Br)(CBr)CCC(Br)C(C)C (stereo not given)
4.66 µM: HCT-15
inactive: CAKI-1 6.58 µM | HCT-116 5.57 µM | HOP-92 10.7 µM | K562 2.11 µM | KM12 2.18 µM | M14 4.16 µM | MDA-MB-231 4.27 µM | MDA-MB-435 5.21 µM | MDA-N 2.07 µM | Malme-3M 13.5 µM | OVCAR-4 4.9 µM | SK-MEL-2 2.96 µM | SK-MEL-5 5.24 µM | SR 1.62 µM | TK-10 3.13 µM | U-251 3.66 µM
active: HL-60 0.769 µM

O=C1/C(=N\n2c(S)nnc2-c2ccncc2)c2cc(Cl)ccc2N1CN1CCCCC1
25.4 µM: HCT-15
inactive: CAKI-1 33.7 µM | HCT-116 37.8 µM | HL-60 13.1 µM | HOP-92 56 µM | K562 20.5 µM | KM12 38.3 µM | M14 44.7 µM | MDA-MB-231 > 100 µM | MDA-MB-435 32.2 µM | MDA-N 31.5 µM | Malme-3M > 100 µM | OVCAR-4 32.2 µM | SK-MEL-2 20.9 µM | SK-MEL-5 48.6 µM | TK-10 30.3 µM | U-251 40.4 µM

CSc1nc2ccccc2c(=O)n1/N=C1\C(=O)N(CN2CCCCC2)c2ccc(Cl)cc21
inactive: CAKI-1 23.3 µM | HCT-116 18.5 µM | HL-60 10.9 µM | HOP-92 32.9 µM | K562 5.22 µM | KM12 25.1 µM | M14 30.5 µM | MDA-MB-231 55.1 µM | MDA-MB-435 26.6 µM | MDA-N 21.8 µM | Malme-3M > 100 µM | OVCAR-4 30.2 µM | SK-MEL-2 19.5 µM | SK-MEL-5 27.9 µM | TK-10 26.4 µM | U-251 33.3 µM
13.3 µM: HCT-15

CC(=O)Oc1ccc2c(c1)O/C(=C\c1ccc(N(C)C)cc1)C2=O
67 µM: HCT-15
inactive: CAKI-1 > 100 µM | HCT-116 85.5 µM | HL-60 32.7 µM | K562 27.9 µM | KM12 90.8 µM | M14 > 100 µM | MDA-MB-231 68.5 µM | MDA-MB-435 35.3 µM | MDA-N 36.4 µM | OVCAR-4 75.2 µM | SK-MEL-5 > 100 µM | SR 37.2 µM | TK-10 > 100 µM | U-251 37.7 µM

CCOP(=O)(OCC)C(c1ccc(F)cc1)N(C(=O)NC(F)(F)F)c1ccc(OC)cc1 (stereo not given)
inactive: CAKI-1 > 100 µM | HCT-116 > 100 µM | HL-60 > 100 µM | K562 > 100 µM | KM12 > 100 µM | M14 > 100 µM | MDA-MB-231 > 100 µM | MDA-MB-435 > 100 µM | MDA-N > 100 µM | Malme-3M > 100 µM | SK-MEL-5 > 100 µM | SR > 100 µM | TK-10 > 100 µM | U-251 > 100 µM
> 100 µM: HCT-15
